Source: paper PMC11003488 (Journal of Enzyme Inhibition and Medicinal Chemistry, 2023)
Where two headings read alike, the source gives them in different places.

Legend:
Colon cancer cell lines = experiment: NCI-60 SRB growth inhibition, subpanel; assay type: cell-based, human; conditions: for GI50: Homo sapiens
KM12 = experiment: NCI-60 SRB growth inhibition, one-dose and five-dose; assay type: cell-based; conditions: Homo sapiens; for GI50: KM12; for inhibition at 10 µM: KM12, read-out: percent growth inhibition
ACHN = experiment: as above; assay type: cell-based; conditions: Homo sapiens; for inhibition at 10 µM: read-out: percent growth inhibition
Breast cancer cell lines = experiment: NCI-60 SRB growth inhibition, subpanel; assay type: cell-based, human; conditions: for GI50: Homo sapiens
RPMI-8226 = experiment: NCI-60 SRB growth inhibition, one-dose and five-dose; assay type: cell-based; conditions: Homo sapiens; for GI50: RPMI-8226; for inhibition at 10 µM: RPMI-8226, read-out: percent growth inhibition
EKVX = experiment: as above; assay type: cell-based; conditions: Homo sapiens; for inhibition at 10 µM: read-out: percent growth inhibition
Leukaemia cell lines = experiment: NCI-60 SRB growth inhibition, subpanel; assay type: cell-based, human; conditions: for GI50: Homo sapiens
SN12C = experiment: NCI-60 SRB growth inhibition, one-dose and five-dose; assay type: cell-based; conditions: Homo sapiens; for inhibition at 10 µM: read-out: percent growth inhibition
OVCAR-8 = experiment: as above; assay type: cell-based; conditions: Homo sapiens; for inhibition at 10 µM: OVCAR-8, read-out: percent growth inhibition
UACC-257 = experiment: as above; assay type: cell-based; conditions: Homo sapiens; for GI50: UACC-257; for inhibition at 10 µM: UACC-257, read-out: percent growth inhibition
T-47D = experiment: as above; assay type: cell-based; conditions: Homo sapiens, T47D; for inhibition at 10 µM: read-out: percent growth inhibition
MCF7 = experiment: as above; assay type: cell-based; conditions: Homo sapiens; for GI50: MCF7; for inhibition at 10 µM: MCF7, read-out: percent growth inhibition
Melanoma cell lines = experiment: NCI-60 SRB growth inhibition, subpanel; assay type: cell-based, human; conditions: for GI50: Homo sapiens
CNS cancer cell lines = experiment: NCI-60 SRB growth inhibition, subpanel; assay type: cell-based, human; conditions: for GI50: Homo sapiens
CAKI-1 = experiment: NCI-60 SRB growth inhibition, one-dose and five-dose; assay type: cell-based; conditions: Homo sapiens; for GI50: CAKI-1; for inhibition at 10 µM: CAKI-1, read-out: percent growth inhibition
NCI-H23 = experiment: as above; assay type: cell-based; conditions: Homo sapiens; for GI50: NCI-H23; for inhibition at 10 µM: NCI-H23, read-out: percent growth inhibition
MDA-MB-231/ATCC = experiment: as above; assay type: cell-based; conditions: Homo sapiens; for GI50: MDA-MB-231
[1] = tested on: Ovarian cancer cell lines; experiment: NCI-60 SRB growth inhibition, subpanel; assay type: cell-based, human; conditions: for GI50: Homo sapiens
HCT-116 = experiment: NCI-60 SRB growth inhibition, one-dose and five-dose; assay type: cell-based; conditions: Homo sapiens; for GI50: HCT-116, HCT-116, five-dose screening; for inhibition at 10 µM: HCT-116, read-out: percent growth inhibition
[2] = tested on: Prostate cancer cell lines; experiment: NCI-60 SRB growth inhibition, subpanel; assay type: cell-based, human; conditions: for GI50: Homo sapiens
[3] = tested on: NCI 60-cell line panel (full panel); experiment: NCI-60 SRB growth inhibition, full panel mean / MG-MID; assay type: cell-based, human; conditions: for GI50: Homo sapiens, 60 cell; for Full panel Mean GI %: mean over NCI-60 panel, single dose 10 µM
HCT-15 = experiment: NCI-60 SRB growth inhibition, one-dose and five-dose; assay type: cell-based; conditions: Homo sapiens; for GI50: HCT-15; for inhibition at 10 µM: HCT-15, read-out: percent growth inhibition
UO-31 = experiment: as above; assay type: cell-based; conditions: Homo sapiens; for GI50: UO-31
SK-MEL-2 = experiment: as above; assay type: cell-based; conditions: Homo sapiens; for inhibition at 10 µM: SK-MEL-2, read-out: percent growth inhibition
OVCAR-3 = experiment: as above; assay type: cell-based; conditions: Homo sapiens; for GI50: OVCAR-3; for inhibition at 10 µM: OVCAR-3, read-out: percent growth inhibition
NSCLC cell lines = experiment: NCI-60 SRB growth inhibition, subpanel; assay type: cell-based, human; conditions: for GI50: Homo sapiens
HCC-2998 = experiment: NCI-60 SRB growth inhibition, one-dose and five-dose; assay type: cell-based; conditions: Homo sapiens; for GI50: HCC 2998; for inhibition at 10 µM: HCC 2998, read-out: percent growth inhibition
[4] = tested on: WI-38 normal human fibroblast cells; experiment: Cytotoxicity towards normal fibroblasts, safety index; assay type: cell-based; conditions: WI-38 versus cancer cell lines
[5] = as above; assay type: cell-based, human; conditions: human, WI-38 normal fibroblast cells
Renal cancer cell lines = experiment: NCI-60 SRB growth inhibition, subpanel; assay type: cell-based, human; conditions: for GI50: Homo sapiens
Human VEGFR-2 = Human VEGFR-2 (Homo sapiens, UniProt P35968); experiment: VEGFR-2 inhibition assay; assay type: biochemical
Chain of Human VEGFR-2 (P35968 20-1356): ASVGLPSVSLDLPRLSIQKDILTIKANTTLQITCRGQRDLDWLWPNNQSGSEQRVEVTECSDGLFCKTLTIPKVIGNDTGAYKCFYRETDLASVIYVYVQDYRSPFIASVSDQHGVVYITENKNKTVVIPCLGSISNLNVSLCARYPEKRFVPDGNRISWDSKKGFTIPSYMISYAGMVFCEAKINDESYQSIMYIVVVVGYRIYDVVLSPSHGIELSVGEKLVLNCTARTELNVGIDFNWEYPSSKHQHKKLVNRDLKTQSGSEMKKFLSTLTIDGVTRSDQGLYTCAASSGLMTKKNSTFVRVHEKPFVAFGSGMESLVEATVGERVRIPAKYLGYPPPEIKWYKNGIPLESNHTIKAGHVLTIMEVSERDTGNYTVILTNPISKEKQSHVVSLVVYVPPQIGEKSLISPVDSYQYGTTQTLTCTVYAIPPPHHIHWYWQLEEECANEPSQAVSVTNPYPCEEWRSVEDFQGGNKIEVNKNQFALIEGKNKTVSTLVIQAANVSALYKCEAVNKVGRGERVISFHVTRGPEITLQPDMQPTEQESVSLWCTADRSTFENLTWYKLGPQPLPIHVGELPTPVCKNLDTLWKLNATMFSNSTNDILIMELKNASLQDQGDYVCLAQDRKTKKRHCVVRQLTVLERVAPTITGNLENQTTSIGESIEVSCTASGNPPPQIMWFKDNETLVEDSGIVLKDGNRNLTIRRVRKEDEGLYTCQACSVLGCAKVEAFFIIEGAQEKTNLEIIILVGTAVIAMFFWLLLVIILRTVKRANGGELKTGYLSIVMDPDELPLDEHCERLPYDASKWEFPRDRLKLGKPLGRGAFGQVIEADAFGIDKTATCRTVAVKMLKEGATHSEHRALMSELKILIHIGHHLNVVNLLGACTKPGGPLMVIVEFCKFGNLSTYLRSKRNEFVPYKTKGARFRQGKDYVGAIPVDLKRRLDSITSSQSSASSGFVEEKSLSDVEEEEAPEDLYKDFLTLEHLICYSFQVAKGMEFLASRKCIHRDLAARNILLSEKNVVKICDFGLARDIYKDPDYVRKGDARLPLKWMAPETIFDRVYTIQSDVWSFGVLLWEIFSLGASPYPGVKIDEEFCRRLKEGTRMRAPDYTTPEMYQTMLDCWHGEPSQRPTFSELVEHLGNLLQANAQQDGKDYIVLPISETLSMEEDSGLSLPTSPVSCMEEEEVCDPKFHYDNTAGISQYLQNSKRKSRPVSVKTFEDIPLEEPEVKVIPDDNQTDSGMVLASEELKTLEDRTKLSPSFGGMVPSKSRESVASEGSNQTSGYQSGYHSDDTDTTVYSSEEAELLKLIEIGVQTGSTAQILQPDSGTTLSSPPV

## COc1ccc(CNc2cccc(C(=O)/C=C/c3cccnc3)c2)cc1OC [Compound 5c, (E)-1–(3-((3,4-dimethoxybenzyl)amino)phenyl)-3-(pyridin-3-yl)prop-2-en-1-one]
Colon cancer cell lines; read-out: GI50 MG-MID
  GI50: 4.45 µM
KM12
  GI50: 1.99 µM
  inhibition at 10 µM: 165%
ACHN
  GI50: 3.95 µM
  inhibition at 10 µM: 132%
Breast cancer cell lines; read-out: GI50 MG-MID
  GI50: 5.96 µM
RPMI-8226
  GI50: 2.14 µM
  inhibition at 10 µM: 99.7%
EKVX
  GI50: 10.4 µM
  inhibition at 10 µM: 62.3%
Leukaemia cell lines; read-out: GI50 MG-MID
  GI50: 2.6 µM
SN12C
  GI50: 11.8 µM
  inhibition at 10 µM: 83.7%
OVCAR-8; OVCAR-8
  GI50: 4.01 µM
OVCAR-8
  inhibition at 10 µM: 85.1%
UACC-257
  GI50: 12.5 µM
  inhibition at 10 µM: 34%
T-47D
  GI50: 10 µM
  inhibition at 10 µM: 105%
MCF7
  GI50: 1.89 µM
  inhibition at 10 µM: 186%
Melanoma cell lines; read-out: GI50 MG-MID
  GI50: 7.75 µM
CNS cancer cell lines; read-out: GI50 MG-MID
  GI50: 9.11 µM
CAKI-1
  GI50: 10.2 µM
  inhibition at 10 µM: 39.8%
NCI-H23
  GI50: 1.99 µM
  inhibition at 10 µM: 73.6%
MDA-MB-231/ATCC
  GI50: 2.96 µM
MDA-MB-231/ATCC; MDA-MB-231, read-out: percent growth inhibition
  inhibition at 10 µM: 94.5%
[1]; read-out: GI50 MG-MID
  GI50: 8.65 µM
HCT-116
  GI50: 1.94 µM
  inhibition at 10 µM: 183%
[2]; read-out: GI50 MG-MID
  GI50: 10.2 µM
[3]; read-out: Full panel GI50 mean
  GI50: 7.67 µM
[3]
  Full panel Mean GI %: 87.75%
HCT-15
  GI50: 2.01 µM
  inhibition at 10 µM: 134%
UO-31
  GI50: 10.5 µM
UO-31; UO-31, read-out: percent growth inhibition
  inhibition at 10 µM: 65%
SK-MEL-2; SK-MEL-2
  GI50: 15.1 µM
SK-MEL-2
  inhibition at 10 µM: 23.5%
OVCAR-3
  GI50: 2.74 µM
  inhibition at 10 µM: 107%
NSCLC cell lines; read-out: GI50 MG-MID
  GI50: 11.2 µM
HCC-2998
  GI50: 2.04 µM
  inhibition at 10 µM: 75.8%
[4]
  Safety index: >1
[5]
  GI50 at 48 h: > 100 µM
Renal cancer cell lines; read-out: GI50 MG-MID
  GI50: 9.08 µM
Human VEGFR-2
  IC50: 0.96 ± 0.012 µM

## O=C(/C=C/c1cccnc1)c1cccc(NCc2csc3ccccc23)c1 [Compound 5d, (E)-1–(3-((benzo[b]thiophen-3-ylmethyl)amino)phenyl)-3-(pyridin-3-yl)prop-2-en-1-one]
Colon cancer cell lines; read-out: GI50 MG-MID
  GI50: 3.93 µM
Colon cancer cell lines; read-out: MG-MID GI50
  GI50: 3.93 µM
Colon cancer cell lines; full panel MG-MID / Colon Cancer subpanel MG-MID
  SI (Selectivity Index): 1.21
KM12
  GI50: 3.58 µM
  inhibition at 10 µM: 158%
ACHN
  GI50: 2.82 µM
  inhibition at 10 µM: 155%
Breast cancer cell lines; read-out: GI50 MG-MID
  GI50: 2.69 µM
Breast cancer cell lines; read-out: MG-MID GI50
  GI50: 2.69 µM
Breast cancer cell lines; full panel MG-MID / Breast Cancer subpanel MG-MID
  SI (Selectivity Index): 1.76
RPMI-8226
  GI50: 1.99 µM
  inhibition at 10 µM: 119%
EKVX
  GI50: 3.98 µM
  inhibition at 10 µM: 106%
Leukaemia cell lines; read-out: GI50 MG-MID
  GI50: 2.76 µM
Leukaemia cell lines; read-out: MG-MID GI50
  GI50: 2.76 µM
Leukaemia cell lines; full panel MG-MID / leukaemia subpanel MG-MID
  SI (Selectivity Index): 1.72
SN12C
  GI50: 3.02 µM
  inhibition at 10 µM: 128%
OVCAR-8
  inhibition at 10 µM: 119%
UACC-257
  GI50: 5.58 µM
  inhibition at 10 µM: 105%
T-47D
  GI50: 2.83 µM
  inhibition at 10 µM: 91.2%
MCF7
  GI50: 1.58 µM
  inhibition at 10 µM: 176%
Melanoma cell lines; read-out: GI50 MG-MID
  GI50: 3.76 µM
Melanoma cell lines; read-out: MG-MID GI50
  GI50: 3.76 µM
Melanoma cell lines; full panel MG-MID / Melanoma subpanel MG-MID
  SI (Selectivity Index): 1.26
CNS cancer cell lines; read-out: GI50 MG-MID
  GI50: 5.4 µM
CNS cancer cell lines; read-out: MG-MID GI50
  GI50: 5.4 µM
CNS cancer cell lines; full panel MG-MID / CNS Cancer subpanel MG-MID
  SI (Selectivity Index): 0.88
CAKI-1
  GI50: 9.3 µM
  inhibition at 10 µM: 98.3%
NCI-H23
  GI50: 3.94 µM
  inhibition at 10 µM: 139%
MDA-MB-231/ATCC
  GI50: 2.67 µM
[1]; read-out: GI50 MG-MID
  GI50: 5.3 µM
[1]; read-out: MG-MID GI50
  GI50: 5.3 µM
[1]; full panel MG-MID / Ovarian Cancer subpanel MG-MID
  SI (Selectivity Index): 0.89
HCT-116
  GI50: 1.82 µM
  inhibition at 10 µM: 195%
[2]; read-out: GI50 MG-MID
  GI50: 5.56 µM
[2]; read-out: MG-MID GI50
  GI50: 5.56 µM
[2]; full panel MG-MID / Prostatic Cancer subpanel MG-MID
  SI (Selectivity Index): 0.85
[3]; read-out: Full panel GI50 mean
  GI50: 4.74 µM
[3]; read-out: Full panel MG-MID GI50
  GI50: 4.74 µM
[3]
  Full panel Mean GI %: 120.02%
HCT-15
  GI50: 1.92 µM
  inhibition at 10 µM: 141%
UO-31
  GI50: 4.94 µM
SK-MEL-2
  inhibition at 10 µM: 74%
OVCAR-3
  GI50: 3.19 µM
  inhibition at 10 µM: 157%
NSCLC cell lines; read-out: GI50 MG-MID
  GI50: 6.83 µM
NSCLC cell lines; read-out: MG-MID GI50
  GI50: 6.83 µM
NSCLC cell lines; full panel MG-MID / NSCLC subpanel MG-MID
  SI (Selectivity Index): 0.69
HCC-2998
  GI50: 3.66 µM
  inhibition at 10 µM: 188%
[4]
  Safety index: >1
[5]
  GI50 at 48 h: > 100 µM
Renal cancer cell lines; read-out: GI50 MG-MID
  GI50: 6.46 µM
Renal cancer cell lines; read-out: MG-MID GI50
  GI50: 6.46 µM
Renal cancer cell lines; full panel MG-MID / Renal Cancer subpanel MG-MID
  SI (Selectivity Index): 0.73
Human VEGFR-2
  IC50: 1.46 ± 0.009 µM
